This note sets out measurements from patent publication US11608332B2, “FGFR4 inhibitor and preparation method and use thereof” (Jiangsu Hansoh Pharmaceutical Group Co., Ltd., priority 2016, dated 2023).

The target of one data set is FGFR1 kinase (Homo sapiens (Human), UniProt P11362). The data set can be described thus: Enzymologic experiment of FGFR1 (TR-FRET). To be noted: TR-FRET kinase activity. The data set is classed as biochemical. The protocol:
2. Enzymologic Experiment of FGFR1
In this experiment, the inhibitory effect of the compounds on FGFR1 kinase activity was tested by a fluorescence resonance energy transfer (TR-FRET) method, and the half maximal inhibitory concentration (IC50) of the compounds on the FGFR1 kinase activity was determined.
1) 1˜5 μL of FGFR1 enzymatic solution was added to a 384-well plate, and the final concentration of the enzyme was 0.1˜5 nM.
2) 1˜5 μL of diluted solution in gradient of the compound was added.
3) 1˜5 μL of a substrate mixture containing substrate polypeptide with a final concentration of 5˜50 nM and ATP with a final concentration of 10˜200 μM was added.
4) The mixture was incubated for 0.5-3 hours at room temperature.
5) 10 μL of EDTA and a test solution comprising labeled antibody were added, and the plate was incubated for 1 hour at room temperature.
6) The fluorescence signal values of each plate were determined by a microplate reader at 665 nm.
7) The inhibition rates were calculated according to the fluorescence signal values.
The IC50 of the compound was obtained by curve fitting according to the inhibition rates at different concentrations, and the enzymatic activity of the specific example compounds is shown in Table 1.
(In general: In TR-FRET formats the signal depends on donor and acceptor labels being close together.)

The test system of the next data set is Hep 3B cells. Nature of the data set: Inhibition of Hep 3B cell proliferation (CellTiter-Glo). The data set is classed as cell-based. As to conditions: Homo sapiens, Hep3B, 72 hours. Here is the method: 3. Experiment on the Inhibition of Hep 3B Cell Proliferation
In this experiment, the inhibitory effect of the compounds on Hep 3B cell proliferation was tested by a CellTiter-Glo method, and the half maximal inhibitory concentration (IC50) of the compounds on the activity of cell proliferation was determined.
1) A 96-well cell culture plate was seeded with 50˜100 μL of Hep 3B cell suspension at a density of 1-5×10^4 cells/ml. The culture plate was incubated in an incubator for 16-24 hours (37° C., 5% CO2).
(§1) 2) Different concentrations of the test compound in a gradient dilution were added to the cells in the culture plate. The culture plate was incubated in an incubator for 72 hours (37° C., 5% CO2).
3) 50-100 μL of CellTiter-Glo reagent were added to each well. Then, the culture plate was shaken or left to stand for 5˜30 minutes at room temperature.
(§2) 4) The chemiluminescence signal values of each plate were determined by a microplate reader.
(§3) 5) The inhibition rates were calculated according to the chemiluminescence signal values.
6) The IC50 of the compound was obtained by curve fitting according to the inhibition rates at different concentrations, and the cell activity of the specific example compounds is shown in Table 2.

Another data set deals with HuH-7 cells. The data set can be described thus: Inhibition of HuH-7 cell proliferation (CellTiter-Glo). To be noted: Homo sapiens, 72 hours. Format: cell-based. Here is the method:
4. Experiment on the Inhibition of HuH-7 Cell Proliferation
In this experiment, the inhibitory effect of the compounds on HuH-7 cell proliferation was tested by a CellTiter-Glo method, and the half maximal inhibitory concentration (IC50) of the compounds on the activity of cell proliferation was determined.
1) A 96-well cell culture plate was seeded with 50˜100 μL of HuH-7 cell suspension at a density of 1-5×10^4 cells/ml. The culture plate was incubated in an incubator for 16˜24 hours (37° C., 5% CO2).
as §1
(§4) 3) 50˜100 μL of CellTiter-Glo reagent were added to each well. Then, the culture plate was shaken or left to stand for 5˜30 minutes at room temperature.
as §2, §3
6) The IC50 of the compound was obtained by curve fitting according to the inhibition rates at different concentrations, and the cell activity of the specific Example compounds is shown in Table 2.
(ATP-based viability assays read luminescence as a measure of living cells.)

Another data set deals with SK-HEP-1 cells. The data set can be described thus: Inhibition of SK-HEP-1 cell proliferation (CellTiter-Glo). The data set is classed as cell-based. To be noted: Homo sapiens, SK-HEP1, 72 hours. The protocol: 5. Experiment on the Inhibition of SK-HEP-1 Cell Proliferation
In this experiment, the inhibitory effect of the compounds on SK-HEP-1 cell proliferation was tested by a CellTiter-Glo method, and the half maximal inhibitory concentration (IC50) of the compounds on the activity of cell proliferation was determined.
1) A 96-well cell culture plate was seeded with 50˜100 μL of SK-HEP-1 cell suspension at a density of 1-5×10^4 cells/ml. The culture plate was incubated in an incubator for 16˜24 hours (37° C., 5% CO2).
as §1, §4, §2, §3
The IC50 of the compound was obtained by curve fitting according to the inhibition rates at different concentrations, and the cell activity of the specific Example compounds is shown in Table 2.

A short description of data set [1]: Pharmacokinetic (PK) analysis in rats. The data set is classed as in vivo, Sprague Dawley (SD) rats. To be noted: SD rats, single intragastric administration, 5 mg/kg, plasma; for AUC(0-t) / AUC(0-inf) / half-life / MRT / Cmax: Sprague-Dawley, rat, po; for AUC(0-t): read-out: Area Under Curve AUC0-t; for AUC(0-inf): read-out: Area Under Curve AUC0-∞; for half-life: read-out: Half-Time t1/2 (converted); for MRT: read-out: Mean Residence Time MRT; for Cmax: read-out: Plasma Concentration Cmax. The protocol:
6. Pharmacokinetic (PK) Analysis in Rats
Mode of administration: a single intragastric administration.
Formulation: 0.5% CMC and 1% Tween 80, ultrasonic dissolution.
Sampling points: 0.5, 1, 2, 4, 6, 8 and 24 hours after administration.
1. 1.0 ml of intravenous blood was collected and placed in a K2EDTA test tube.
The blood was centrifuged at room temperature at the speed of 1000˜3000×g for 5˜20 minutes to isolate the plasma, which was then stored at −80° C. 2. 160 μL of acetonitrile were added to 40 μL of plasma sample for precipitation, and then the mixture was centrifuged at the speed of 500˜2000×g for 5˜20 minutes. 3. 100 μL of treated solution were taken, and the concentration of the test compound was analyzed by LC/MS/MS. The LC/MS/MS analytical instrument was AB Sciex API 4000.
Liquid Chromatography Analysis:
Condition of Liquid chromatography: Shimadzu LC-20AD pump
Chromatographic column: phenomenex Gemiu 5 um C18 50×4.6 mm
Mobile phase: Solution A is 0.1% aqueous formic acid solution, and solution B is acetonitrile
Elution time: 0-3.5 minutes, the eluent was as follows:
Mass spectrometry analysis:
Mass spectrometer setup conditions: positive ion electrospray ionization (ESI) mode.

Chain of FGFR1 kinase (P11362 22-822): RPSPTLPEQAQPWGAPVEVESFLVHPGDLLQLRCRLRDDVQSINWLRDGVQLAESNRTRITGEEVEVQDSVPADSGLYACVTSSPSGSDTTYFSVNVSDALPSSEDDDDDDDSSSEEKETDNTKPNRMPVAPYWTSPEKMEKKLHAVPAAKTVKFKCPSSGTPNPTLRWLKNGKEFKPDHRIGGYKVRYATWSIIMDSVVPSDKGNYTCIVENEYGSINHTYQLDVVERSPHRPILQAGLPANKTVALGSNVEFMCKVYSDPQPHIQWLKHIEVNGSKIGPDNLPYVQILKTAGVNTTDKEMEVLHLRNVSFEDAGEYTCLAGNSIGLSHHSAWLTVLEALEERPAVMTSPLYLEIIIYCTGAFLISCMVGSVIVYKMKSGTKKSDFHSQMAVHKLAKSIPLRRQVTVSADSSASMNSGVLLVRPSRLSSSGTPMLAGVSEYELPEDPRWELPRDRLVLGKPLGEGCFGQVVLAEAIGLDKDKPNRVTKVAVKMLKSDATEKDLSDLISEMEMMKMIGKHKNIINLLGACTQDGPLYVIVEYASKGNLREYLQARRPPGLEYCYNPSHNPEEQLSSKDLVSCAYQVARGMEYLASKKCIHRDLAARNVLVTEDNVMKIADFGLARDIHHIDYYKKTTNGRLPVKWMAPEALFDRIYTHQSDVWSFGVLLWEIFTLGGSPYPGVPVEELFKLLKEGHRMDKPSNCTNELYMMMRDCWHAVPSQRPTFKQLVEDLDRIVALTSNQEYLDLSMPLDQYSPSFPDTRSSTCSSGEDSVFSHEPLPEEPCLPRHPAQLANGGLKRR

Consider `COCCNc1cc(NC(=O)N2CCCc3cc(CN(C)C(=O)C4CCOC4)c(C=O)nc32)ncc1C#N` (stereo not drawn) [Example 5, N-(5-Cyano-4-((2-methoxyethyl)amino)pyridin-2-yl)-7-formyl-6-((N-methyltetrahydrofuran-3-carboxamido)methyl)-3,4-dihydro-1,8-naphthyridin-1(2H)-carboxamide], for which the IC50 (commonly the point on the concentration scale where inhibition reaches its midpoint) against FGFR1 kinase is over 10000 nM. In the data set with Hep 3B cells, this molecule gave a half-inhibitory concentration (IC50) of 9.1 nM. For the same molecule, in the data set on HuH-7 cells, 31.7 nM corresponded to half-maximal inhibition (IC50). Also, the half-maximal inhibitory concentration (IC50) with SK-HEP-1 cells is over 10000 nM. In addition, in data set [1], the Peak Time tmax came out at 2 h, the AUC(0-t) is 13000 ng·h/mL, the AUC(0-inf) amounted to 13400 ng·h/mL and the half-life was 1.2 h. For the same molecule, in data set [1], the MRT – broadly, the average time that molecules of a dose stay in the body – is 3.2 h and the Cmax was 3570 ng/mL.
At FGFR1 kinase, `COCCNc1cc(NC(=O)N2CCCc3cc(CN4CC[C@H](OC)C4=O)c(C=O)nc32)ncc1C#N` [Example 46, (S)—N-(5-Cyano-4-((2-methoxyethyl)amino)pyridin-2-yl)-7-formyl-6-((3-methoxy-2-carbonylpyrrolidin-1-yl)methyl)-3,4-dihydro-1,8-naphthyridin-1(2H)-carboxamide] yielded an IC50 of over 10000 nM. Besides, the IC50 in the data set with Hep 3B cells was 2.3 nM. This molecule also returned an IC50 in the data set with HuH-7 cells of 9 nM. The IC50 with SK-HEP-1 cells is over 10000 nM. Also, in data set [1], the Peak Time tmax was 2 h, the AUC(0-t) came out at 10700 ng·h/mL, the AUC(0-inf) was 11300 ng·h/mL and the half-life was 1 h. Further, the Cmax in data set [1] turned out to be 3290 ng/mL.
For `CO[C@@H]1CCN(c2cc(NC(=O)N3CCCc4cc(CN5CC[C@H](OC)C5=O)c(C=O)nc43)ncc2C#N)C1` [Example 54, N-(5-Cyano-4-((R)-3-methoxypyrrolidin-1-yl)pyridin-2-yl)-7-formyl-6-(((S)-3-methoxy-2-carbonylpyrrolidin-1-yl)methyl)-3,4-dihydro-1,8-naphthyridin-1(2H)-carboxamide], the IC50 against FGFR1 kinase is over 10000 nM. Moreover, the IC50 in the data set with Hep 3B cells worked out at 4.4 nM. Moreover, the IC50 in the data set with HuH-7 cells is 11.3 nM. In addition, in the data set on SK-HEP-1 cells, the IC50 was over 10000 nM. For the same molecule, in data set [1], the Peak Time tmax worked out at 2 h, the AUC(0-t) worked out at 7130 ng·h/mL, the AUC(0-inf) turned out to be 7870 ng·h/mL and the half-life was 1 h. In data set [1], the MRT came out at 2.7 h and the Cmax is 2870 ng/mL.
With `CO[C@H]1CCN(Cc2cc3c(nc2C=O)N(C(=O)Nc2cc(N[C@H]4CCOC4)c(C#N)cn2)CCC3)C1=O` [Example 84, N-(5-Cyano-4-(((S)-tetrahydrofuran-3-yl)amino)pyridin-2-yl)-7-formyl-6-(((S)-3-methoxy-2-carbonylpyrrolidin-1-yl)methyl)-3,4-dihydro-1,8-naphthyridin-1(2H)-carboxamide], on FGFR1 kinase, the IC50 was over 10000 nM. In the data set with Hep 3B cells, this molecule registered an IC50 of 2.4 nM. For the same molecule, the IC50 in the data set on HuH-7 cells was 11 nM. Moreover, the IC50 with SK-HEP-1 cells is over 10000 nM. In data set [1], the Peak Time tmax was 2 h, the AUC(0-t) stood at 8860 ng·h/mL, the AUC(0-inf) was found to be 8950 ng·h/mL and the half-life was 0.9 h. In addition, in data set [1], the MRT was 3.1 h and the Cmax came out at 2620 ng/mL.
`CO[C@H]1CCN(Cc2cc3c(nc2C=O)N(C(=O)Nc2cc(N[C@@H]4CCOC4)c(C#N)cn2)CCC3)C1=O` [Example 85, N-(5-Cyano-4-(((R)-tetrahydrofuran-3-yl)amino)pyridin-2-yl)-7-formyl-6-(((S)-3-methoxy-2-carbonylpyrrolidin-1-yl)methyl)-3,4-dihydro-1,8-naphthyridin-1(2H)-carboxamide] showed an IC50 on FGFR1 kinase of over 10000 nM. Besides, it took 2.6 nM to reach half-maximal inhibition with Hep 3B cells (IC50). In the data set with HuH-7 cells, this molecule gave an IC50 of 4.6 nM. This molecule also displayed an IC50 in the data set with SK-HEP-1 cells of over 10000 nM. In data set [1], the Peak Time tmax is 2 h, the AUC(0-t) amounted to 7280 ng·h/mL, the AUC(0-inf) was 7370 ng·h/mL and the half-life is 0.9 h. For the same molecule, in data set [1], the MRT was 3.3 h and the Cmax was 2120 ng/mL.
`CO[C@@H]1CCN(Cc2cc3c(nc2C=O)N(C(=O)Nc2cc(N[C@@H]4CCOC4)c(C#N)cn2)CCC3)C1=O` [Example 87, N-(5-Cyano-4-(((R)-tetrahydrofuran-3-yl)amino)pyridin-2-yl)-7-formyl-6-(((R)-3-methoxy-2-carbonylpyrrolidin-1-yl)methyl)-3,4-dihydro-1,8-naphthyridin-1(2H)-carboxamide] returned an IC50 against FGFR1 kinase of over 10000 nM. The molecule also had an IC50 in the data set with Hep 3B cells of 2.2 nM. In the data set with HuH-7 cells, the half-maximal inhibitory concentration (IC50) was determined as 5.4 nM. Moreover, the IC50 in the data set on SK-HEP-1 cells is over 10000 nM. For the same molecule, in data set [1], the Peak Time tmax was determined as 2 h, the AUC(0-t) was 12400 ng·h/mL, the AUC(0-inf) was determined as 14700 ng·h/mL and the half-life is 1.2 h. Besides, in data set [1], the MRT came to 2.6 h and the Cmax was found to be 3360 ng/mL.
`COC[C@@H](C)Nc1cc(NC(=O)N2CCCc3cc(CN4CC[C@H](OC)C4=O)c(C=O)nc32)ncc1C#N` [Example 89, N-(5-Cyano-4-(((R)-1-methoxypropan-2-yl)amino)pyridin-2-yl)-7-formyl-6-(((S)-3-methoxy-2-carbonylpyrrolidin-1-yl)methyl)-3,4-dihydro-1,8-naphthyridin-1(2H)-carboxamide]: the concentration for half-maximal inhibition (IC50) on FGFR1 kinase is over 10000 nM. Also, half-maximal inhibition in the data set with Hep 3B cells (IC50) required 1.9 nM. Further, the IC50 in the data set on HuH-7 cells was determined as 2.3 nM. Also, the IC50 in the data set with SK-HEP-1 cells is over 10000 nM. In addition, in data set [1], the Peak Time tmax came to 2 h, the AUC(0-t) came out at 3100 ng·h/mL, the AUC(0-inf) came to 3130 ng·h/mL and the half-life was 1 h. For the same molecule, in data set [1], the MRT is 2.5 h and the Cmax was found to be 1990 ng/mL.
